Reference: article PMC2248166, “Quantitative peptide binding motifs for 19 human and mouse MHC class I molecules derived using positional scanning combinatorial peptide libraries” (Immunome Research, 2008)
Where a SMILES comes first, the peptide text is derived from it.

What follows are compounds tested against HLA B*1501 (Homo sapiens, UniProt P01889, A329T/A93T/A95T/C349S/D201E/D98Y/E187L/E204Q/E69M/E70A/K202T/N87E/Q94N/R155S/R180W/S121R/S35A/S48A/V306I/V36M/Y140S/Y91S) (assay: biochemical).
Assay type: binding
In the case of `CC[C@H](C)[C@H](NC(=O)[C@H](CO)NC(=O)[C@H](CC(C)C)NC(=O)CNC(=O)[C@H](CCC(=O)O)NC(=O)[C@H](CO)NC(=O)[C@H](Cc1ccc(O)cc1)NC(=O)[C@H](CC(C)C)NC(=O)[C@@H](N)CCCNC(=N)N)C(=O)O` [3102.1232] (H-RLYSEGLSI-OH), the IC50 is reported as 0.0045 µM.
In the case of `CSCC[C@H](NC(=O)[C@H](C)NC(=O)[C@H](CCCCN)NC(=O)[C@H](Cc1ccccc1)NC(=O)[C@@H](NC(=O)[C@@H](N)CC(N)=O)C(C)C)C(=O)N[C@@H](CCC(=O)O)C(=O)N[C@H](C(=O)N[C@@H](Cc1ccccc1)C(=O)O)[C@@H](C)O` [3102.0887] (H-NVFKAMETF-OH), the IC50 is reported as 0.023 µM.
In the case of `CC[C@H](C)[C@H](NC(=O)[C@H](CCSC)NC(=O)[C@H](C)N)C(=O)N[C@@H](CCC(=O)O)C(=O)N[C@@H](CC(C)C)C(=O)N[C@@H](CS)C(=O)NCC(=O)N[C@@H](C)C(=O)N[C@@H](Cc1ccccc1)C(=O)O` [3102.1013] (H-AMIELCGAF-OH), the IC50 is reported as 0.00034 µM.
`CC[C@H](C)[C@H](NC(=O)[C@@H](N)Cc1ccccc1)C(=O)N[C@@H](CC(N)=O)C(=O)N[C@@H](CCSC)C(=O)N[C@H](C(=O)NCC(=O)N[C@@H](CC(N)=O)C(=O)N[C@@H](Cc1c[nH]cn1)C(=O)N[C@@H](Cc1ccccc1)C(=O)O)[C@@H](C)O` [3102.1288] (H-FINMTGNHF-OH) showed an IC50 of 0.016 µM.
With `CC[C@H](C)[C@H](NC(=O)[C@H](CCSC)NC(=O)[C@@H](N)CO)C(=O)N[C@@H](CC(N)=O)C(=O)N[C@@H](Cc1ccc(O)cc1)C(=O)N[C@@H](Cc1ccc(O)cc1)C(=O)N[C@@H](CC(N)=O)C(=O)N[C@@H](CCC(=O)O)C(=O)N[C@@H](CCSC)C(=O)O` [3102.0985] (H-SMINYYNEM-OH) the IC50 was 0.0023 µM.
Work on `CC(C)C[C@H](NC(=O)[C@H](CO)NC(=O)[C@H](CCCCN)NC(=O)[C@H](CC(C)C)NC(=O)[C@@H](N)CO)C(=O)N[C@@H](Cc1ccc(O)cc1)C(=O)N[C@@H](CCC(=O)O)C(=O)N[C@@H](C)C(=O)N[C@@H](Cc1ccccc1)C(=O)O` [3102.0923] (H-SLKSLYEAF-OH) yielded an IC50 of 0.02 µM.
In the case of `CC[C@H](C)[C@H](NC(=O)[C@H](CS)NC(=O)[C@H](CO)NC(=O)[C@@H](NC(=O)[C@H](CS)NC(=O)[C@H](CO)NC(=O)[C@H](CCSC)NC(=O)[C@@H](N)CCSC)[C@@H](C)CC)C(=O)N[C@@H](Cc1ccccc1)C(=O)O` [3102.0850] (H-MMSCISCIF-OH), the IC50 is reported as 0.0076 µM.
With `CSCC[C@H](NC(=O)[C@H](Cc1c[nH]cn1)NC(=O)[C@H](CS)NC(=O)[C@@H](NC(=O)[C@H](CC(N)=O)NC(=O)[C@H](CC(N)=O)NC(=O)[C@@H](NC(=O)[C@H](CO)NC(=O)[C@@H](N)C(C)C)C(C)C)C(C)C)C(=O)O` [3102.0880] (H-VSVNNVCHM-OH) the IC50 was 0.014 µM.
`CC(C)C[C@H](N)C(=O)N[C@@H](CO)C(=O)N[C@@H](CCCNC(=N)N)C(=O)N[C@H](C(=O)N[C@@H](Cc1ccccc1)C(=O)N[C@@H](Cc1ccccc1)C(=O)N[C@@H](CS)C(=O)N[C@H](C(=O)N[C@@H](Cc1ccc(O)cc1)C(=O)O)C(C)C)C(C)C` [3102.0840] (H-LSRVFFCVY-OH) was tested, and the IC50 was 0.0029 µM.
`CSCC[C@H](NC(=O)[C@H](CC(C)C)NC(=O)[C@H](Cc1ccc(O)cc1)NC(=O)[C@H](CCCCN)NC(=O)[C@H](CCSC)NC(=O)[C@@H](N)CO)C(=O)N[C@@H](CC(C)C)C(=O)N[C@@H](CC(C)C)C(=O)N[C@@H](Cc1ccccc1)C(=O)O` [3102.0789] (H-SMKYLMLLF-OH) gave an IC50 of 0.0038 µM.
With `CC[C@H](C)[C@H](NC(=O)CN)C(=O)N[C@@H](CC(N)=O)C(=O)N[C@@H](CCCCN)C(=O)N[C@@H](CCCNC(=N)N)C(=O)N[C@@H](CO)C(=O)N[C@H](C(=O)N1CCC[C@H]1C(=O)N[C@@H](Cc1ccccc1)C(=O)O)[C@@H](C)O` [3102.0792] (H-GINKRSTPF-OH) the IC50 was 0.00072 µM.
For `CC[C@H](C)[C@H](NC(=O)[C@H](CCSC)NC(=O)[C@@H](N)CCC(=O)O)C(=O)N[C@@H](CC(C)C)C(=O)N[C@@H](CO)C(=O)N[C@H](C(=O)N[C@@H](CO)C(=O)N[C@@H](CO)C(=O)N[C@@H](CCSC)C(=O)O)[C@@H](C)O` [3102.0806] (H-EMILSTSSM-OH), the IC50 was 0.0015 µM.
Compound `CC(C)C[C@H](NC(=O)[C@@H](NC(=O)[C@H](CCCCN)NC(=O)[C@H](CCCCN)NC(=O)[C@H](C)NC(=O)[C@@H](N)CC(C)C)[C@@H](C)O)C(=O)N[C@@H](C)C(=O)N1CCC[C@H]1C(=O)N[C@@H](Cc1ccccc1)C(=O)O` [3102.0825] (H-LAKKTLAPF-OH) has an IC50 of 0.0021 µM.
Work on `CC[C@H](C)[C@H](NC(=O)[C@H](Cc1ccc(O)cc1)NC(=O)[C@H](CCSC)NC(=O)[C@@H](N)CC(C)C)C(=O)N[C@@H](CC(C)C)C(=O)NCC(=O)N[C@H](C(=O)N[C@@H](Cc1ccc(O)cc1)C(=O)NCC(=O)O)[C@@H](C)O` [3102.0828] (H-LMYILGTYG-OH) yielded an IC50 of 0.062 µM.
`CC(C)C[C@H](NC(=O)[C@H](CCCCN)NC(=O)[C@H](CS)NC(=O)[C@H](CC(C)C)NC(=O)[C@@H](N)CO)C(=O)N[C@@H](CC(N)=O)C(=O)N[C@@H](CC(N)=O)C(=O)N[C@H](C(=O)N[C@@H](Cc1ccccc1)C(=O)O)C(C)C` [3102.0874] (H-SLCKLNNVF-OH) gave an IC50 of 0.016 µM.
With `CSCC[C@H](NC(=O)[C@H](CCCCN)NC(=O)[C@H](CCCCN)NC(=O)[C@H](Cc1ccc(O)cc1)NC(=O)[C@@H](NC(=O)[C@@H](N)CC(C)C)C(C)C)C(=O)N[C@@H](CCC(N)=O)C(=O)N[C@@H](CO)C(=O)N[C@@H](Cc1ccc(O)cc1)C(=O)O` [3102.0856] (H-LVYKKMQSY-OH) the IC50 was 0.046 µM.
`CC(C)C[C@H](NC(=O)[C@H](Cc1c[nH]cn1)NC(=O)[C@@H](NC(=O)[C@H](Cc1ccccc1)NC(=O)[C@H](Cc1ccc(O)cc1)NC(=O)[C@H](CS)NC(=O)[C@H](Cc1ccc(O)cc1)NC(=O)[C@H](CC(C)C)NC(=O)CN)[C@@H](C)O)C(=O)O` [3102.0832] (H-GLYCYFTHL-OH) showed an IC50 of 0.0069 µM.
With `CC[C@H](C)[C@H](NC(=O)[C@H](Cc1ccc(O)cc1)NC(=O)[C@@H](NC(=O)[C@H](CC(N)=O)NC(=O)[C@H](CCC(=O)O)NC(=O)[C@@H](N)CCSC)C(C)C)C(=O)N[C@@H](CO)C(=O)N[C@@H](CO)C(=O)N[C@@H](Cc1ccc(O)cc1)C(=O)O` [3102.1042] (H-MENVYISSY-OH) the IC50 was 0.002 µM.
`CC[C@H](C)[C@H](NC(=O)[C@H](CC(C)C)NC(=O)[C@H](CC(=O)O)NC(=O)[C@H](CCCNC(=N)N)NC(=O)[C@H](CCSC)NC(=O)[C@@H](N)CC(N)=O)C(=O)N[C@H](C(=O)N[C@H](C(=O)N[C@@H](Cc1ccccc1)C(=O)O)[C@@H](C)O)C(C)C` [3102.0975] (H-NMRDLIVTF-OH) showed an IC50 of 0.0083 µM.
In the case of `CC(C)C[C@H](NC(=O)[C@@H](N)CC(C)C)C(=O)N[C@@H](Cc1c[nH]cn1)C(=O)N[C@@H](CS)C(=O)N[C@H](C(=O)N[C@H](C(=O)N[C@@H](CCC(=O)O)C(=O)N[C@@H](CO)C(=O)N[C@@H](Cc1ccc(O)cc1)C(=O)O)[C@@H](C)O)C(C)C` [3102.1022] (H-LLHCVTESY-OH), the IC50 is reported as 0.001 µM.
`CSCC[C@H](NC(=O)[C@H](CCC(N)=O)NC(=O)[C@H](CCC(N)=O)NC(=O)[C@@H](NC(=O)[C@H](CCC(=O)O)NC(=O)[C@@H]1CCCN1C(=O)[C@H](CO)NC(=O)[C@H](CO)NC(=O)[C@@H](N)CCCCN)[C@@H](C)O)C(=O)O` [3102.1065] (H-KSSPETQQM-OH) was tested, and the IC50 was 0.03 µM.
`CSCC[C@H](NC(=O)[C@@H](NC(=O)[C@H](CCC(=O)O)NC(=O)[C@H](CCSC)NC(=O)[C@H](CC(C)C)NC(=O)[C@H](CCSC)NC(=O)[C@H](Cc1ccccc1)NC(=O)[C@@H](NC(=O)[C@H](C)N)C(C)C)[C@@H](C)O)C(=O)O` [3102.0831] (H-AVFMLMETM-OH) was tested, and the IC50 was 0.026 µM.
With `CC[C@H](C)[C@H](NC(=O)[C@H](CS)NC(=O)[C@H](CCCNC(=N)N)NC(=O)[C@H](Cc1c[nH]cn1)NC(=O)[C@H](CC(C)C)NC(=O)[C@@H](N)CC(C)C)C(=O)N[C@@H](Cc1ccc(O)cc1)C(=O)N[C@@H](Cc1c[nH]cn1)C(=O)N[C@@H](Cc1ccc(O)cc1)C(=O)O` [3102.0866] (H-LLHRCIYHY-OH) the IC50 was 0.043 µM.
In the case of `CC[C@H](C)[C@H](NC(=O)[C@@H](N)CO)C(=O)N[C@@H](CS)C(=O)N[C@@H](CO)C(=O)N[C@@H](CCCCN)C(=O)N[C@@H](CO)C(=O)N[C@@H](CC(N)=O)C(=O)N1CCC[C@H]1C(=O)N[C@@H](Cc1ccccc1)C(=O)O` [3102.0855] (H-SICSKSNPF-OH), the IC50 is reported as 0.039 µM.
Work on `CC[C@H](C)[C@H](NC(=O)[C@@H](N)CCC(=O)O)C(=O)N[C@@H](Cc1ccccc1)C(=O)N[C@@H](CCCCN)C(=O)N[C@@H](Cc1c[nH]cn1)C(=O)N[C@@H](CC(C)C)C(=O)N[C@H](C(=O)N[C@@H](Cc1ccccc1)C(=O)N[C@@H](Cc1ccccc1)C(=O)O)C(C)C` [3102.0972] (H-EIFKHLVFF-OH) yielded an IC50 of 0.012 µM.
With `CSCC[C@H](NC(=O)[C@@H](NC(=O)[C@H](CC(C)C)NC(=O)[C@H](CC(C)C)NC(=O)[C@H](Cc1ccc(O)cc1)NC(=O)[C@H](CCC(N)=O)NC(=O)[C@@H](N)CC(N)=O)[C@@H](C)O)C(=O)N[C@@H](Cc1ccccc1)C(=O)N[C@@H](Cc1ccccc1)C(=O)O` [3102.0819] (H-NQYLLTMFF-OH) the IC50 was 0.0012 µM.
`CC[C@H](C)[C@H](NC(=O)CNC(=O)[C@@H](N)CO)C(=O)NCC(=O)N[C@H](C(=O)N[C@@H](Cc1ccccc1)C(=O)N[C@@H](CC(C)C)C(=O)N[C@@H](Cc1c[nH]cn1)C(=O)N[C@@H](Cc1ccc(O)cc1)C(=O)O)[C@@H](C)O` [3102.0852] (H-SGIGTFLHY-OH) gave an IC50 of 0.023 µM.
Compound `CC[C@H](C)[C@H](N)C(=O)N[C@@H](CO)C(=O)N[C@@H](CCCCN)C(=O)N[C@@H](CC(N)=O)C(=O)N[C@@H](C)C(=O)N[C@@H](Cc1ccccc1)C(=O)N[C@@H](CO)C(=O)N[C@@H](CS)C(=O)N[C@@H](CCSC)C(=O)O` [3102.0935] (H-ISKNAFSCM-OH) has an IC50 of 0.078 µM.
`CC[C@H](C)[C@H](NC(=O)[C@H](CCCNC(=N)N)NC(=O)[C@H](Cc1ccc(O)cc1)NC(=O)[C@H](CCC(N)=O)NC(=O)[C@@H](NC(=O)[C@@H](N)CC(C)C)C(C)C)C(=O)N[C@@H](CC(C)C)C(=O)N1CCC[C@H]1C(=O)N[C@@H](CCSC)C(=O)O` [3102.0954] (H-LVQYRILPM-OH) showed an IC50 of 0.063 µM.
Compound `CC[C@H](C)[C@H](NC(=O)[C@H](C)NC(=O)[C@H](CC(N)=O)NC(=O)[C@H](Cc1ccccc1)NC(=O)[C@H](CC(C)C)NC(=O)[C@@H](N)Cc1ccc(O)cc1)C(=O)N[C@@H](CCC(=O)O)C(=O)N[C@H](C(=O)N[C@@H](CCSC)C(=O)O)[C@@H](C)O` [3102.0905] (H-YLFNAIETM-OH) has an IC50 of 0.0014 µM.
